# Test results as given in patent US20260306640A1, “TECHNOLOGIES TARGETING CELL STATES” (Auron Therapeutics, Inc., priority 2023, published 2026).
# Target: KAT2A (Homo sapiens, UniProt Q92830)
# Assay: KAT2A degradation, Western Blot (Jess), MOLM-13 cells
# Format: cell-based
# Parameters: degrader, Western blot
# Settings: MOLM-13 cells, KAT2A, 24 h, Western Blot, vs DMSO; read-out: KAT2A MOLM-13 DC50
# Procedure: MOLM-13 cells or NCI-H1048 cells were used for Western Blot analysis of KAT2A degradation. KAT2B degradation can be measured in a similar manner with NCI-H1048 cells.
# MOLM-13 cells were maintained at 37° C. in 5% CO2 and 90% humidity in RPMI 1640 supplemented with 20% fetal bovine serum (FBS) and 1× penicillin/streptomycin. Cells were plated in full media at 1-2 million cells/2 mL in a 6-well tissue culture treated plate with or without compounds for 24 h at 37° C. in 5% CO2.
# MOLM-13 cells or NCI-H1048 cells were washed with PBS, then lysed with RIPA buffer containing 1×protease and phosphatase inhibitors (SantaCruz Biotechnologies Cat #sc-24948A). Protein was isolated by centrifugation at 12,000×g for 10 minutes at 4° C. and supernatant was collected. Protein was quantified via Bradford assay. Samples were diluted to 4 μg lysate in 16 μL RIPA buffer and then 4 μL of Jess Sample Buffer. Samples were heated at 95° C. for 5 minutes. Samples were loaded onto 12-230 kDa Jess™ Separation Module, 8×25 capillary cartridges (SM-W004, Biotechne). Antibodies loaded were: Primary antibody for KAT2A (GCN5L2 (C26A10) Rabbit mAb (3305, CST)) and for KAT2B (PCAF (C14G9)) Rabbit mAb (3378, CST) at 1:1000 and Anti-Rabbit Detection Module for Jess™ (Cat No #DM-001, Biotechne). Signal was detected by chemiluminescence.
# DC50 values were determined from percent reduction of protein as compared to the DMSO control.
# KAT2A, sequence (Q92830 whole entry): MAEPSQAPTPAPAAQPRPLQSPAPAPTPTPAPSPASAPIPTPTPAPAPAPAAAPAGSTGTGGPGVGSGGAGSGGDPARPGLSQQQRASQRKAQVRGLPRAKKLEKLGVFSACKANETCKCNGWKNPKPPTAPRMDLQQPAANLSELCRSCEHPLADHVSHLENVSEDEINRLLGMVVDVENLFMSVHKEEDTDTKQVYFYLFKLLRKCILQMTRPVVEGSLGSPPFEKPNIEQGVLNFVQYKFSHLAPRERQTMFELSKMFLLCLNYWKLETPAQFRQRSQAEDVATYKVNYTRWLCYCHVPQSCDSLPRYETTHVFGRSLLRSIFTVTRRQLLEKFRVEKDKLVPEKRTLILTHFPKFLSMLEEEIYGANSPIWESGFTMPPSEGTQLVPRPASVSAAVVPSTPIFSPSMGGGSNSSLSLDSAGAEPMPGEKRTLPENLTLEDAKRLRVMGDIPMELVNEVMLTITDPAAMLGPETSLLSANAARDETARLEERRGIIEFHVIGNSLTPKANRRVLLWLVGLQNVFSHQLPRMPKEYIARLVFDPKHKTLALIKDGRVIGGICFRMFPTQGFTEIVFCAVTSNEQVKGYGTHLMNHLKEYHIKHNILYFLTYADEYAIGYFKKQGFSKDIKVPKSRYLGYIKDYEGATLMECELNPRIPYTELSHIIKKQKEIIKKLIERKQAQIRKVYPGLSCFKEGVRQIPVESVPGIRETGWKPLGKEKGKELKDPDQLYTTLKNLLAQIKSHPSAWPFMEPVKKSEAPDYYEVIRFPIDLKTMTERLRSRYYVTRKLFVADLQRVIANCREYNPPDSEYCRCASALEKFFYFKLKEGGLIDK
row,DC50,Structure (SMILES)
1,1 to 30 nM,CN1C[C@H](Nc2cnn(C)c(=O)c2Br)C[C@H](c2ccc(C(=O)N(C)CCOc3cccc4c3C(=O)N(C3CCC(=O)NC3=O)C4=O)cc2)C1 (some centres unmarked) [Compound 44]
2,< 1 nM,CN1C[C@H](Nc2cnn(C)c(=O)c2Cl)C[C@H](c2ccc(C(=O)N3CCC4(CC3)CCN(c3cccc(C5CCC(=O)NC5=O)c3)CC4)cc2)C1 (some centres unmarked) [Compound 163]
3,< 1 nM,CN1C[C@H](Nc2cnn(C)c(=O)c2Br)C[C@H](c2ccc(C(=O)N3CCN(c4cccc5c4C(=O)N(C4CCC(=O)NC4=O)C5=O)CC3)cc2)C1 (some centres unmarked) [Compound 27]
4,1 to 30 nM,CN1C[C@H](Nc2cnn(C)c(=O)c2Br)C[C@H](c2ccc(C(=O)N(C)CCCCC#CCCCOc3cccc4c3C(=O)N(C3CCC(=O)NC3=O)C4=O)cc2)C1 (some centres unmarked) [Compound 8]
5,< 1 nM,CN1C[C@H](Nc2cnn(C)c(=O)c2Br)C[C@H](c2ccc(C(=O)N3CCN(Cc4ccc(C5CCC(=O)NC5=O)cc4)CC3)cc2)C1 (some centres unmarked) [Compound 80]
6,> 30 nM,CN1C[C@H](Nc2cnn(C)c(=O)c2Br)C[C@H](c2ccc(C(=O)N3CCC(N4CCN(C5CCC(=O)NC5=O)CC4)CC3)cc2)C1 (some centres unmarked) [Compound 161]
7,< 1 nM,CN1C[C@H](Nc2cnn(C)c(=O)c2Br)C[C@H](c2ccc(CN3CCC4(CC3)CCN(c3ccc(C5CCC(=O)NC5=O)c(F)c3)CC4)cc2)C1 (some centres unmarked) [Compound 156]
8,< 1 nM,CN1C[C@H](Nc2cnn(C)c(=O)c2Br)C[C@H](c2ccc(C(=O)N3CC4(CCN(c5ccc(C6CCC(=O)NC6=O)cc5)CC4)C3)cc2)C1 (some centres unmarked) [Compound 144]
9,< 1 nM,CN1C[C@H](Nc2cnn(C)c(=O)c2Br)C[C@H](c2ccc(CN3CCC4(CCN(c5ccc(C6CCC(=O)NC6=O)cc5)C4)C3)cc2)C1 (some centres unmarked) [Compound 89]
10,< 1 nM,CN1C[C@H](Nc2cnn(C)c(=O)c2Br)C[C@H](c2ccc(CN3CC(c4ccc5c(c4)CN(C4CCC(=O)NC4=O)C5=O)C3)cc2)C1 (some centres unmarked) [Compound 139]
11,< 1 nM,CN1C[C@H](Nc2cnn(C)c(=O)c2Br)C[C@H](c2ccc(CN3CCC(Oc4ccc(F)c(C5CCC(=O)NC5=O)c4)CC3)cc2)C1 (some centres unmarked) [Compound 132]
12,1 to 30 nM,CN1C[C@H](Nc2cnn(C)c(=O)c2Br)C[C@H](c2ccc(CN3CCC(c4ccc(C5CCC(=O)NC5=O)cc4)CC3)cc2)C1 (some centres unmarked) [Compound 87]
13,1 to 30 nM,CN1C[C@H](Nc2cnn(C)c(=O)c2Cl)C[C@H](c2ccc(C(=O)N3CCN(Cc4ccc(C(=O)Nc5cccc6c5C(=O)N(C5CCC(=O)NC5=O)C6=O)cc4)CC3)cc2)C1 (some centres unmarked) [Compound 46]
14,< 1 nM,Cc1c(N[C@@H]2C[C@H](c3ccc(CN4CCC(c5ccc6c(c5)CN(C5CCC(=O)NC5=O)C6=O)CC4)cc3)CN(C)C2)cnn(C)c1=O (some centres unmarked) [Compound 150]
15,< 1 nM,CN1C[C@H](Nc2cnn(C)c(=O)c2Br)C[C@H](c2ccc(C(=O)N3CC(c4ccc5c(c4)CN(C4CCC(=O)NC4=O)C5=O)C3)cc2)C1 (some centres unmarked) [Compound 138]
16,> 30 nM,CN1C[C@H](Nc2cnn(C)c(=O)c2Br)C[C@H](c2ccc(C(=O)N3CCN(CC4CCN(C5CCC(=O)NC5=O)CC4)CC3)cc2)C1 (some centres unmarked) [Compound 177]
17,1 to 30 nM,CN1C[C@H](Nc2cnn(C)c(=O)c2Cl)C[C@H](c2ccc(CN3CCN(c4ccc(C5CCC(=O)NC5=O)cc4)CC3)cc2)C1 (some centres unmarked) [Compound 104]
18,1 to 30 nM,CN1C[C@H](Nc2cnn(C)c(=O)c2Br)C[C@H](c2ccc(C(=O)N3CCC(c4ccc5c(c4)CN(C4CCC(=O)NC4=O)C5=O)CC3)cc2)C1 (some centres unmarked) [Compound 172]
19,> 30 nM,CN1C[C@H](Nc2nn(C)c(=O)c3cccnc23)C[C@H](c2ccc(C(=O)N3CCN(Cc4ccc(C(=O)Nc5cccc6c5C(=O)N(C5CCC(=O)NC5=O)C6=O)cc4)CC3)cc2)C1 (some centres unmarked) [Compound 47]
20,1 to 30 nM,CN1C[C@H](Nc2cnn(C)c(=O)c2Br)C[C@H](c2ccc(C(=O)N3CCN(Cc4cccc5c4CN(C4CCC(=O)NC4=O)C5=O)CC3)cc2)C1 (some centres unmarked) [Compound 79]
21,1 to 30 nM,CN1C[C@H](Nc2cnn(C)c(=O)c2Br)C[C@H](c2ccc(C(=O)N3CCN(Cc4cccc(C(=O)Nc5cccc6c5C(=O)N(C5CCC(=O)NC5=O)C6=O)c4)CC3)cc2)C1 (some centres unmarked) [Compound 57]
22,< 1 nM,CN1C[C@H](Nc2cnn(C)c(=O)c2Br)C[C@H](c2ccc(CNC3CN(c4ccc(C5CCC(=O)NC5=O)cc4)C3)cc2)C1 (some centres unmarked) [Compound 103]
23,> 30 nM,CN1C[C@H](Nc2cnn(C)c(=O)c2Br)C[C@H](c2ccc(COc3ccc4c(c3)CN(C3CCC(=O)NC3=O)C4=O)cc2)C1 (some centres unmarked) [Compound 65]
24,< 1 nM,CN1C[C@H](Nc2cnn(C)c(=O)c2Br)C[C@H](c2ccc(C(=O)N3CCC(N4CCN(c5ccc6c(c5)C(=O)N(C5CCC(=O)NC5=O)C6=O)CC4)CC3)cc2)C1 (some centres unmarked) [Compound 96]

row,DC50,Structure (SMILES)
1,< 1 nM,CN(Cc1ccc(Oc2cccc3c2C(=O)N(C2CCC(=O)NC2=O)C3=O)cc1)Cc1ccc([C@H]2C[C@@H](Nc3cnn(C)c(=O)c3Br)CN(C)C2)cc1 (some centres unmarked) [Compound 48]
2,1 to 30 nM,CN1C[C@H](Nc2cnn(C)c(=O)c2Br)C[C@H](c2ccc(CN3CC4(C3)CN(c3ccc(C5CCC(=O)NC5=O)cc3)C4)cc2)C1 (some centres unmarked) [Compound 159]
3,< 1 nM,CN1C[C@H](Nc2cnn(C)c(=O)c2Br)C[C@H](c2ccc(C(=O)N(C)Cc3ccc(Oc4cccc5c4C(=O)N(C4CCC(=O)NC4=O)C5=O)cc3)cc2)C1 (some centres unmarked) [Compound 33]
4,< 1 nM,CN1C[C@H](Nc2cnn(C)c(=O)c2Br)C[C@H](c2ccc(CN3CCC4(CC3)CN(c3ccc5c(c3)C(=O)N(C3CCC(=O)NC3=O)C5=O)C4)cc2)C1 (some centres unmarked) [Compound 108]
5,< 1 nM,CN1C[C@H](Nc2cnn(C)c(=O)c2Br)C[C@H](c2ccc(CN3CCN(c4ccc5c(c4)oc(=O)n5C4CCC(=O)NC4=O)CC3)cc2)C1 (some centres unmarked) [Compound 180]
6,< 1 nM,CN1C[C@H](Nc2cnn(C)c(=O)c2Cl)C[C@H](c2ccc(CN3CCC(c4ccc5c(c4)CN(C4CCC(=O)NC4=O)C5=O)CC3)cc2)C1 (some centres unmarked) [Compound 70]
7,< 1 nM,CN1C[C@H](Nc2cnn(C)c(=O)c2Br)C[C@H](c2ccc(C(=O)N3CCC(c4ccc(NC5CCC(=O)NC5=O)cc4)CC3)cc2)C1 (some centres unmarked) [Compound 115]
8,> 30 nM,CN1C[C@H](Nc2cnn(C)c(=O)c2Br)C[C@H](c2ccc(CN3CCN(c4ccc(N5CCC(=O)NC5=O)cc4)CC3)cc2)C1 [Compound 78]
9,1 to 30 nM,CN1C[C@H](Nc2cnn(C)c(=O)c2Br)C[C@H](c2ccc(CN3CCC4(CC3)CN(c3ccc(C5CCC(=O)NC5=O)cc3)C4)cc2)C1 (some centres unmarked) [Compound 133]
10,1 to 30 nM,CN1C[C@H](Nc2cnn(C)c(=O)c2Br)C[C@H](c2ccc(CN3CCN(c4cccc(N5CCC(=O)NC5=O)c4)CC3)cc2)C1 [Compound 101]
11,< 1 nM,CN1C[C@H](Nc2cnn(C)c(=O)c2Br)C[C@H](c2ccc(CN3CCC4(CC3)CCN(c3cccc(C5CCC(=O)NC5=O)c3)CC4)cc2)C1 (some centres unmarked) [Compound 134]
12,1 to 30 nM,CN1C[C@H](Nc2cnn(C)c(=O)c2Br)C[C@H](c2ccc(C(=O)NCCCCCCOCCOCC(=O)Nc3cccc4c3C(=O)N(C3CCC(=O)NC3=O)C4=O)cc2)C1 (some centres unmarked) [Compound 12]
13,> 30 nM,CN1C[C@H](Nc2cnn(C)c(=O)c2Br)C[C@H](c2ccc(CN3CC4(C3)CN(c3cccc(C5CCC(=O)NC5=O)c3)C4)cc2)C1 (some centres unmarked) [Compound 160]
14,1 to 30 nM,CN1C[C@H](Nc2cnn(C)c(=O)c2Br)C[C@H](c2ccc(CN3CCC(c4ccc5c(c4)C(=O)N(C4CCC(=O)NC4=O)C5=O)C3)cc2)C1 (some centres unmarked) [Compound 130]
15,< 1 nM,CN1C[C@H](Nc2cnn(C)c(=O)c2Br)C[C@H](c2ccc(CN3CCN(c4cccc5c4CN(C4CCC(=O)NC4=O)C5=O)CC3)cc2)C1 (some centres unmarked) [Compound 116]
16,> 30 nM,CN1C[C@H](Nc2cnn(C)c(=O)c2Br)C[C@H](c2ccc(CN3CC4(C3)CN(c3cccc5c3C(=O)N(C3CCC(=O)NC3=O)C5=O)C4)cc2)C1 (some centres unmarked) [Compound 51]
17,1 to 30 nM,CN1C[C@H](Nc2cnn(C)c(=O)c2Cl)C[C@H](c2ccc(C(=O)N3CCC(c4ccc5c(c4)CN(C4CCC(=O)NC4=O)C5=O)CC3)cc2)C1 (some centres unmarked) [Compound 77]
18,< 1 nM,CN1C[C@H](Nc2cnn(C)c(=O)c2Br)C[C@H](c2ccc(C(=O)N3CC(Oc4ccc5c(c4)CN(C4CCC(=O)NC4=O)C5=O)C3)cc2)C1 (some centres unmarked) [Compound 93]
19,< 1 nM,CN1C[C@H](Nc2cnn(C)c(=O)c2Br)C[C@H](c2ccc(CN3CC4(CCN(c5ccc(C6CCC(=O)NC6=O)cc5)CC4)C3)cc2)C1 (some centres unmarked) [Compound 154]
20,1 to 30 nM,CN1C[C@H](Nc2cnn(C)c(=O)c2Br)C[C@H](c2ccc(C(=O)N3CCC(Oc4cccc5c4C(=O)N(C4CCC(=O)NC4=O)C5=O)CC3)cc2)C1 (some centres unmarked) [Compound 19]
21,< 1 nM,CN1C[C@H](Nc2cnn(C)c(=O)c2Br)C[C@H](c2ccc(C(=O)N3CCC4(CCN(CC5CCN(c6ccc7c(c6)C(=O)N(C6CCC(=O)NC6=O)C7=O)CC5)C4)C3)cc2)C1 (some centres unmarked) [Compound 118]
22,1 to 30 nM,CN1C[C@H](Nc2cnn(C)c(=O)c2Br)C[C@H](c2ccc(C(=O)N3CC(Oc4ccc5c(c4)C(=O)N(C4CCC(=O)NC4=O)C5=O)C3)cc2)C1 (some centres unmarked) [Compound 30]
23,< 1 nM,CN1C[C@H](Nc2cnn(C)c(=O)c2Br)C[C@H](c2ccc(C(=O)N3CCN(Cc4ccc5c(c4)CN(C4CCC(=O)NC4=O)C5=O)CC3)cc2)C1 (some centres unmarked) [Compound 71]
